Source: patent publication US20210290839A1, “SYSTEMS AND METHODS FOR DETECTING AND TREATING BACTERIAL BIOFILMS” (UNIVERSITY OF MARYLAND, COLLEGE PARK, priority 2017, published 2021)
Entries after “also recorded” stand apart in the source; their conditions may differ.

Key:
Assay type in all cases: cell-based
[1] = test system: bacterial biofilm; experiment: End-point confocal microscopy quantification of bacterial biofilm thickness (FIG. 8); conditions: Combination: 100 μM autoinducer-2 analog isobutyl DPD plus 0.125V AC at 10 MHz offset by 0.125V DC, compared with either alone
Source text: FIG. 8 is a bar graph showing the results of end-point confocal microscopy quantification of bacterial biofilm thickness for different treatment conditions, including combined electrical measuring and quorum sensing inhibitors (e.g., autoinducer-2 analog).
Although the preceding paragraphs address the bioelectric effect based on antibiotics, similar results can be obtained with other antimicrobial agents, such as quorum sensing inhibitors. In particular, FIG. 8 illustrates the results of experiments for different treatment conditions using autoinducer-2 analog. “LB control” represents an experiment where no electric field or autoinducer-2 analog was present. “E-field only” represents an experiment where an electrical signal of 0.125V AC at 10 MHz offset by 0.125V DC was applied to electrodes, without any autoinducer-2 analog present. “AI-2 analog” represents an experiment where autoinducer-2 analog is introduced (e.g., 100 μM autoinducer-2 analog isobutyl DPD) without any electrical signal applied to the electrodes. “Combination” represents an experiment where the electrical signal is applied to the electrodes and autoinducer-2 analog is introduced.

[2] = test system: Escherichia coli (K12 W3110) biofilm; experiment: Real-time impedance sensing of biofilm during 24-hour treatment period (FIG. 6A); conditions: BE: gentamicin 10 μg/ml plus sensing, AC 50 mV at 100 Hz, 30 s of every 150 s; 24-hour treatment of 24-hour biofilm; increase corresponds to removal of biofilm
Description: (§1) In particular, each experiment employed a flow system including a growth media reservoir, waste reservoir, and the detecting device connected using polymer tubing and luer connectors in between the reservoirs. Fluid was pumped through the flow system by a peristaltic pump. The detecting device and tubing were placed in an incubator maintained at 37° C., to mimic the temperature found in an inserted catheter. Escherichia coli (K12 W3110) were cultured in incubator at 37° C. and then diluted to an OD600 of 0.25. 1 ml of the diluted E. coli solution was then introduced into the catheter tube directly via syringe. The bacteria were allowed to attach to the interior surface under static (no flow) conditions for 2 hours (referred to as the Seeding phase). […] Throughout the Growth phase, the system impedance (Z) is measured by the detecting device every 2 minutes, with the relative change being used to monitor biofilm formation. […]
As noted above, the sensing voltage applied to the electrodes of the detecting device 300 can also synergistically enhances any antimicrobial agent present to deliver a bioelectric effect. FIG. 6A illustrates the measured impedance characteristics in experiments employing a detecting device fabricated according to the structure of FIGS. 3A-3B and employing a benchtop potentiostat as the voltage source. […]

[3] = test system: Escherichia coli (K12 W3110) biofilm; experiment: Crystal violet absorbance assay biomass quantification (FIG. 6B); conditions: 24-hour treatment
Description: as §1, with “syringe.” for “syringe. The bacteria were allowed to attach to the interior surface under static (no flow) conditions for 2 hours (referred to as the Seeding phase).”
CV absorbance staining was used to quantify the end-point biomass and to validate the impedance measurements of FIG. 6A. […] Optical absorbance at a wavelength (λ) of 590 nm was then measured, with increases corresponding to increased biomass. One-way analysis of variance (ANOVA) was used to determine statistical significance of the biomass quantification results.
FIG. 6B illustrates the results of the CV absorbance assay for various treatment conditions in experiments employing a detecting device fabricated according to the structure of FIGS. 3A-3B and employing a benchtop potentiostat as the voltage source.

[4] = test system: bacterial biofilm; experiment: Real-time fractional relative change of impedance during treatment with threshold-triggered 100 mV signal (FIG. 7); conditions: 24 hour treatment
Description: FIG. 7 illustrates the fractional relative change of impedance measurements in experiments similar to that of FIG. 6B. In particular, treatment is performed by applying a 100 mV signal across the same electrodes used for impedance detection, in combination with near MIC levels of antibiotic, thereby generating a second bioelectric effect. This bioelectric effect was applied at regular intervals for only ˜1/7 of the total 24 hour treatment period.
The “E-field” curve represents an experiment where an intervallic 100 mV AC electrical signal (e.g., at 1 MHz) in addition to the periodic 5 mV AC detection voltage was applied to the electrodes, but without any antibiotic present. The “BE” curve represents an experiment where an intervallic 100 mV AC electrical signal (e.g., at 1 MHz) in addition to the periodic 5 mV AC detection voltage was applied to the electrodes, and with 10 μg/mL of gentamicin present. The decision to apply the 100 mV AC signal in both experiments was made by logic using the impedance data gathered in the sensing mode (i.e., using the 5 mV AC detection voltage). If the average sensing mode data point was less than a predefined threshold, then the larger 100 mV electric field treatment was applied; otherwise, the system continued in sensing mode with the periodic application of the 5 mV AC detection voltage. […]

How did the “reduction of biofilm thickness” value [1] turn out when `CC(C)CC(=O)C(=O)C(O)CO` (stereo not drawn) [autoinducer-2 analog, isobutyl DPD] was run?
The value was “substantially improved efficacy in reducing biofilm thickness over either alone”.

Which results are given for gentamicin?
impedance change during the treatment period [2]: ~20%; end-point biofilm biomass (CV absorbance at 590 nm) ([3]; Anti-only: antibiotic without impedance sensing): significantly higher biomass of biofilm; end-point biofilm biomass (CV absorbance at 590 nm) ([3]; BE: sensing + antibiotic (gentamicin 10 μg/ml)): biomass similar to a bacteria-free control; change in 100 Hz impedance at the end of treatment phase ([4]; "Antibiotic": 10 μg/mL gentamicin with periodic 5 mV AC detection voltage): increase in 100 Hz impedance; also recorded: as effective in treating the biofilm; change in 100 Hz impedance at the end of treatment phase ([4]; "BE": 10 μg/mL gentamicin with intervallic 100 mV AC (1 MHz) plus periodic 5 mV AC detection voltage): increase in 100 Hz impedance
